In patent publication US20240246946A1, “MODULATORS OF TREX1” (Constellation Pharmaceuticals, Inc., priority 2021, published 2024):

What was measured:
full length mouse TREX1 = molecular target: T1, full length mouse TREX1 (Mus musculus, UniProt Q91XB0); test: mTREX1 Biochemical Assay (fluorescence, dsDNA substrate degradation); settings: biochemical, read-out: mTREX1 IC50
T1 construct: N-terminally His-Tev tagged full length mouse TREX1; made in house; host or cells: E. coli
T1 sequence (Q91XB0 1-314): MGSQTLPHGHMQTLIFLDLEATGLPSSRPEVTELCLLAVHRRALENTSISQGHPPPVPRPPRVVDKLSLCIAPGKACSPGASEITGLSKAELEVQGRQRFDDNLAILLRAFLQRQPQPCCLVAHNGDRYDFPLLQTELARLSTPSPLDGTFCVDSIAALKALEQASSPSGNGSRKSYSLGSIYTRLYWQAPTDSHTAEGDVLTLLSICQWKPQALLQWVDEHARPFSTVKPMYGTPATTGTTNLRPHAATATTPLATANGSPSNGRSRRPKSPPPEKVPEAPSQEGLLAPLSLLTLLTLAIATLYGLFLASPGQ
Outline: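 Reaction run 18 h at 25° C. with 60 nM TEX615/quencher-labelled dsDNA and 6 pM mouse TREX1 in Tris buffer (pH 7.4, 5 mM MgCl2, 1.0% DMSO), enzyme having sat 4 h with compound across 10 concentrations. EDTA quench; substrate degradation measured as fluorescence increase.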

full length human TREX1 = molecular target: T2, full length human TREX1 (Homo sapiens, UniProt Q9NSU2); test: hTREX1 Biochemical Assay (fluorescence, dsDNA substrate degradation); settings: biochemical, read-out: hTREX1 IC50
T2 construct: N-terminally His-Tev tagged full length human TREX1; made in house; host or cells: E. coli
T2 sequence (Q9NSU2 1-314): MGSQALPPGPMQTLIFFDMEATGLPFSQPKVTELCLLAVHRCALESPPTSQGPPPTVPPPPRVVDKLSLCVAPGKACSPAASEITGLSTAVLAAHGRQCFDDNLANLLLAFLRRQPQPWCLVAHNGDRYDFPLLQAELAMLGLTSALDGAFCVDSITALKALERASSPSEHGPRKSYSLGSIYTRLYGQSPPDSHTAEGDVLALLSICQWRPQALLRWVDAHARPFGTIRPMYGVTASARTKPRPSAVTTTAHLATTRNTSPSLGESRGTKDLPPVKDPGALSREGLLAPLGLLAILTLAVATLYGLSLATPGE
Outline: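 Fluorescence rises as enzyme degrades a quenched TEX615-labelled dsDNA substrate (60 nM) in 50 mM Tris, 150 mM NaCl, 5 mM MgCl2, pH 7.4. Full-length His-Tev-tagged human TREX1, 4 pM, sits with compound 4 hours at 25° C before substrate; reaction 18 hours, stopped with EDTA.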

hTREX1 = molecular target: T3, hTREX1 (Homo sapiens, UniProt Q9NSU2); test: hTREX1 HCT116 Cell Assay (HCT116 dual cells, Lucia luciferase reporter of Type I interferon induction); type: cell-based; settings: TREX1i 4 h before pBR322/BstNI transfection, read after 48 h
T3 construct: host or cells: HCT116 dual cells
T3 sequence (Q9NSU2 1-314): T2 sequence (Q9NSU2 1-314)
Outline: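 Type I interferon induction read as secreted Lucia luciferase 48 h after transfecting pBR322/BstNI digest (1 ug/mL, 100 ng/well) into HCT116 dual reporter cells. Compound added 4 h before transfection at up to 0.1% DMSO; cells in DMEM/10% FBS/25 mM HEPES at 37 °C.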

[1] = molecular target: T4, human TREX2 (residues M44-A279) (Homo sapiens, UniProt Q9BQ50); test: hTREX2 Biochemical Assay (fluorescence, dsDNA substrate degradation); settings: biochemical selectivity for hTREX1 vs hTREX2
T4 construct: human TREX2 (residues M44-A279, expressed in E. coli); made in house; host or cells: E. coli
T4 sequence (Q9BQ50 44-279 isoform Q9BQ50-1): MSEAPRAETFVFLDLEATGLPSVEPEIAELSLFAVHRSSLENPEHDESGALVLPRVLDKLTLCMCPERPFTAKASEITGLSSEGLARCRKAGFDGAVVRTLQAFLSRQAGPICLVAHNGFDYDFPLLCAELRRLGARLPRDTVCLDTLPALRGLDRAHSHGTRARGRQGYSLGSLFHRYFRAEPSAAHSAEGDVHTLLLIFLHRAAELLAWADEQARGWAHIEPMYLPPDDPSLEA
Outline: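 Fluorogenic dsDNA degradation read at 615 nm (570 nm excitation) after EDTA quench. Final 60 nM substrate, 50 pM His-Tev-tagged enzyme, 5 mM MgCl2, pH 7.4, 1.0% DMSO; 4 h compound–enzyme preincubation then 18 h reaction, both 25 °C; 10-point titration.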

IC50 (full length mouse TREX1) [nM] | IC50 (full length human TREX1) [nM] | IC50 (hTREX1) [nM] | hTREX1 vs hTREX2 selectivity [1] | SMILES
1 to 10 | < 1 | < 10 | C (C = >50 fold selective for hTREX1) | Cc1cnc(C)c(C(c2ccccc2Cl)C(C)c2nc(C(=O)Nc3cnoc3)c(O)c(=O)n2C)n1 (single isomer, unassigned) [Example 120 D1E1]
> 10 | > 10 | > 100 | C (C = >50 fold selective for hTREX1) | Cc1cnc(C)c(C(c2ccccc2Cl)C(C)c2nc(C(=O)Nc3cnoc3)c(O)c(=O)n2C)n1 (single isomer, unassigned) [Example 120 D2E2]
1 to 10 | 1 to 10 | > 100 | C (C = >50 fold selective for hTREX1) | Cc1cnc(C(c2ccccc2C#N)C(C)c2nc(C(=O)Nc3cnoc3)c(O)c(=O)n2C)c(C)n1 (single isomer, unassigned) [Example 123 D1E1]
> 10 | 1 to 10 | > 100 | A (A = <25 fold selective for hTREX1) | Cc1ncc(C(c2ccccc2Cl)C(C)c2nc(C(=O)Nc3cnoc3)c(O)c(=O)n2C)nc1C (single isomer, unassigned) [Example 125 D2E1]

Second part, the compound before the results:

SMILES | IC50 (full length mouse TREX1) [nM] | IC50 (full length human TREX1) [nM] | IC50 (hTREX1) [nM] | hTREX1 vs hTREX2 selectivity [1]
Cc1cnc(C)c(C(c2cc(F)ccc2Cl)C(C)c2nc(C(=O)Nc3cnoc3)c(O)c(=O)n2C)n1 (single isomer, unassigned) [Example 121 D1E1] | 1 to 10 | < 1 | < 10 | C (C = >50 fold selective for hTREX1)
Cc1cnc(C)c(C(c2cc(F)ccc2Cl)C(C)c2nc(C(=O)Nc3cnoc3)c(O)c(=O)n2C)n1 (single isomer, unassigned) [Example 121 D2E1] | > 10 | > 10 | > 100 | B (B = 25 to 50-fold selective for hTREX1)
Cc1nc(C)c(C(c2ccccc2C#N)C(C)c2nc(C(=O)Nc3cnoc3)c(O)c(=O)n2C)nc1C (single isomer, unassigned) [Example 122 D2E1] | > 10 | 1 to 10 | > 100 | B (B = 25 to 50-fold selective for hTREX1)
CC(c1nc(C(=O)Nc2cnoc2)c(O)c(=O)n1C)C(c1ccccc1C#N)c1c[nH]nc1F (single isomer, unassigned) [Example 127 D1E1] | < 1 | < 1 | < 10 | B (B = 25 to 50-fold selective for hTREX1)
CC(c1nc(C(=O)Nc2cnoc2)c(O)c(=O)n1C)C(c1ccccc1C#N)c1c[nH]nc1F (single isomer, unassigned) [Example 127 D1E2] | > 10 | 1 to 10 | > 100 | B (B = 25 to 50-fold selective for hTREX1)
CC(c1nc(C(=O)Nc2cnoc2)c(O)c(=O)n1C)C(c1ccccc1Cl)c1cn(C)nc1F (single isomer, unassigned) [Example 130 D1E1] | < 1 | < 1 | < 10 | B (B = 25 to 50-fold selective for hTREX1)
Cc1ccn(C(c2ccccc2C#N)C(C)c2nc(C(=O)Nc3cnoc3)c(O)c(=O)n2C)n1 (single isomer, unassigned) [Example 132 D1E2] | 1 to 10 | < 1 | 10 to 100 | C (C = >50 fold selective for hTREX1)
Cc1cnn(C(c2ccccc2Cl)C(C)c2nc(C(=O)Nc3cnoc3)c(O)c(=O)n2C)c1 (single isomer, unassigned) [Example 133 D1E2] | 1 to 10 | 1 to 10 | 10 to 100 | A (A = <25 fold selective for hTREX1)
CCc1cnn(C(c2ccccc2Cl)C(C)c2nc(C(=O)Nc3cnoc3)c(O)c(=O)n2C)c1 (single isomer, unassigned) [Example 134 D1E1] | 1 to 10 | 1 to 10 | > 100 | A (A = <25 fold selective for hTREX1)
